As usually defined, the inhibition is the change of the read-out against control, counted positive when it falls. Lower therefore signals little suppression.

SMILES strings stand for the structures. Converted amounts (≈) assume the structure as drawn. Where two headings read alike, the source gives them in different places.

The test system of experiment [1] is coagulase-negative staphylococci. Briefly: Biofilm formation inhibition, quantification of total biomass by violet crystal staining. The following applies: for IC50: read-out: calculated concentration that inhibits the biofilm formation by 50%. Type of experiment: cell-based. On the procedure:
The biofilm forming ability of coagulase-negative staphylococci, when exposed to compounds 1, 2, 9 and 16, was assessed by quantification of total biomass by violet crystal staining.

The subject of experiment [2] is Staphylococcus aureus S54F9. Briefly: Broth microdilution antibiotic susceptibility test. Type of experiment: cell-based. How it is done: The methanolic extract was submitted to solid phase extraction (Waters Sep-Pak® Vac 35 cc 10 g C18 Cartridges) using mixtures of water/methanol (4:1 to 1:4; 4 to 8 column volumes each), yielding an enriched fraction free of chlorophylls and other pigments. The fraction was then chromatographed using semi-preparative HPLC conditions with a gradient of water/acetonitrile 19:1 to 0:1 (both with 0.1% of formic acid) as mobile phase. Fractions were collected every 30 s (total run time of 70 min) and 140 fractions were collected into 96-well deep well plates, and a 25% of a 67 mg 140-well fractionation was tested against Staphylococcus aureus S54F9. In order to carry out this broth microdilution antibiotic susceptibility test, 50 μL of each HPLC fraction resuspended in 14% MeOH in water were mixed with 50 μL of the S. aureus suspension at 10^6 CFU/mL in 2×MHB in a microtiter plate (final desired inoculum=5·10^5 CFU/mL, final concentration of MeOH in bioassay plate=7%, final volume per well=100 μL). The microtiter plate was replicated onto a selective/differential solid medium (Manitol Salt Agar) in order to distinguish between bacteriostatic and bactericidal activities. Growth controls (broth with bacterial inoculum, no bioactive molecule) as well as sterility (broth only) and solvent controls (broth with 7% MeOH in water) were included.
(Broth dilution looks for growth in wells or tubes with falling amounts of substance.)

The mark [3] stands for this setting: coagulase-negative staphylococci biofilm.
Setting [4] is: S54F9, calculated from the antibiotic activities of the fractions in FIG. 1, range across compounds 1, 2, 9 and 16, read-out: predicted minimal inhibitory concentrations (MICs) against S. aureus.

In turn, `CCCCCCC(Cl)CCCCC(=O)O[C@@H](C)C(=O)O` (stereo partly drawn) [Compound 2, (S)-2-[(6-chlorododecanoyl)oxy]propanoic acid] had an inhibition at 16 µg/mL in experiment [1] (biofilm formation, 16 mg/L) of 0%. Further, in experiment [1] (biofilm formation, 32.12 mg/L), the inhibition at 32.12 µg/mL was determined as 31%. For the same compound, in experiment [1] (biofilm formation, 64.25 mg/L), the inhibition at 64.25 µg/mL was found to be 74%. The same compound came in with an inhibition at 128.5 µg/mL in experiment [1] (biofilm formation, 128.5 mg/L) of 89%. Moreover, the inhibition at 257 µg/mL in experiment [1] (biofilm formation, 257 mg/L) amounted to 90%. Moreover, the IC50 in experiment [1] (setting [3]) was 94.6 µg/mL (≈ 308 µM). In addition, the MIC in experiment [2] (setting [4]) was 1790 to 5790 µg/mL (≈ 5830 to 18900 µM).

For the compound `C[C@H](OC(=O)CCCCC(Cl)CCCCCCCl)C(=O)O` (stereo partly drawn) [Compound 9, (S)-2-[(6,12-dichlorododecanoyl)oxy]propanoic acid], in experiment [1] (biofilm formation, 5.65 mg/L), testing at 5.65 µg/mL gave an inhibition of 0%. The inhibition at 11.25 µg/mL in experiment [1] (biofilm formation, 11.25 mg/L) is 22%. In experiment [1] (biofilm formation, 22.5 mg/L), this compound yielded an inhibition at 22.5 µg/mL of 56%. For the same compound, testing at 35 µg/mL in experiment [1] (biofilm formation, 35 mg/L) gave an inhibition of 62%. In experiment [1] (biofilm formation, 90 mg/L), this compound came in with an inhibition at 90 µg/mL of 66%. In experiment [1] (biofilm formation, 180 mg/L), this compound came in with an inhibition at 180 µg/mL of 76%. Moreover, the inhibition at 360 µg/mL in experiment [1] (biofilm formation, 360 mg/L) is 87%. Besides, in experiment [1] (biofilm formation, 721 mg/L), the inhibition at 721 µg/mL worked out at 88%. In addition, in experiment [1] (setting [3]), the IC50 was 20.1 µg/mL (≈ 58.9 µM). Further, in experiment [2] (setting [4]), the MIC is 1790 to 5790 µg/mL (≈ 5250 to 17000 µM).

As for `C[C@H](OC(=O)CCCCC(Cl)CCCCCC(Cl)Cl)C(=O)O` (stereo partly drawn) [Compound 16, (S)-2-[(6,12,12-trichlorododecanoyl)oxy]propanoic acid], in experiment [1], at 37.5 µg/mL the inhibition was 0%, the inhibition at 75 µg/mL turned out to be 68%, the inhibition at 150 µg/mL was 71% and the IC50 is 43.4 µg/mL (≈ 116 µM). Further, the MIC in experiment [2] (S54F9, read-out: predicted minimal inhibitory concentrations (MICs) against S. aureus) is 1790 to 5790 µg/mL (≈ 4760 to 15400 µM).

For `C[C@H](OC(=O)CCCCCCCCCCCCl)C(=O)O` [Compound 1, (S)-2-[(12-chlorododecanoyl)oxy]propanoic acid], in experiment [1] (biofilm formation, 70 mg/L), the inhibition at 70 µg/mL amounted to 0%. In experiment [1] (biofilm formation, 140 mg/L), this compound had an inhibition at 140 µg/mL of 74%. For the same compound, the IC50 in experiment [1] (setting [3]) was 55.1 µg/mL (≈ 180 µM). Moreover, in experiment [2] (setting [4]), the MIC is 1790 to 5790 µg/mL (≈ 5830 to 18900 µM).
